Measured values as given in patent publication US20230089966A1, “METHOD FOR DIFFERENTIATION OF BRAIN MURAL CELLS FROM HUMAN PLURIPOTENT STEM CELLS” (WISCONSIN ALUMNI RESEARCH FOUNDATION, priority 2021, published 2023).
Values belong to the compound of their own block, whether it stands above or below them.

Key:
[1] = target: T1, Notch intracellular domain-RBPJ assembly (Homo sapiens, UniProt Q06330); assay: Loss-of-function experiment, RT-qPCR of mural cell gene expression; assay type: cell-based; settings: 10 μM CB-103 in culture medium; 6 days after transduction of neural crest cells
T1 construct: corresponding to amino acids 1,662-2,321 of NP_00426.2; initiator Met (start codon supplied by the forward primer) (N); expressed in transfected cells; host or cells: H9 hPSC-derived p75+ neural crest cells transduced with N3ICD-GFP (pWPI-N3ICD) lentivirus; RBPJ is endogenous
T1 sequence (Q06330 whole entry, the tested form may be a part): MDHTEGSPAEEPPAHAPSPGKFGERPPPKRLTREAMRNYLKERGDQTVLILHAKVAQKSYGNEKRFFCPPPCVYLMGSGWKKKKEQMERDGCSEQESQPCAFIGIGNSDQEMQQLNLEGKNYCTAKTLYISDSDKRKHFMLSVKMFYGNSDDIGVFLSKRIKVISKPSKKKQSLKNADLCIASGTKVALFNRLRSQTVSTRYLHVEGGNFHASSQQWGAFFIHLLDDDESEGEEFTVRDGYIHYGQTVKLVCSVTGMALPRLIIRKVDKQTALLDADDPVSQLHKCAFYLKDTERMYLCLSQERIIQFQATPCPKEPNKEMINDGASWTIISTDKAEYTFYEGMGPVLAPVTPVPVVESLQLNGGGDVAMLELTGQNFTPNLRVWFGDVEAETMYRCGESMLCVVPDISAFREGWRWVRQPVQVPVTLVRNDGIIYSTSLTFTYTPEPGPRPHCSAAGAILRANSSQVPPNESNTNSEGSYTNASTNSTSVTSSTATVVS
Method: When neural crest cells reached ˜40-50% confluence (˜2-3 days post-MACS), lentiviral transduction was performed by replacing medium in each well E6-CSFD medium containing 30-50 μL N3ICD-GFP, N1ICD-GFP, or TBX2-GFP lentivirus per mL, or 5-8 μL GFP (control) lentivirus per mL, which achieved transduction efficiencies of 50-80%. E6-CSFD medium was replaced every other day for 6 days. In some experiments, culture medium was supplemented with 10 μM CB-103 (MedChemExpress, Monmouth Junction, N.J.). The resulting cultures were either used directly for analysis or sorted to isolate GFP^+ and GFP^− cells as described below.
RNA extraction was performed using the RNeasy Plus Micro Kit (Qiagen). Cells were lysed with 350 μL Buffer RLT supplemented with 1% β-mercaptoethanol (Sigma) and transferred to gDNA Eliminator spin columns. 350 μL 70% ethanol was added to each lysate, and lysates were loaded onto RNeasy MinElute spin columns. Columns were washed with Buffer RW1, Buffer RPE, and 80% ethanol according to manufacturer protocols. RNA was eluted with RNase-free water and concentration quantified using a NanoDrop 2000 spectrophotometer (Thermo Scientific, Waltham, Mass.). 250-1000 ng of RNA was reverse-transcribed for 1 h at 37° C. using the OmniScript RT Kit (Qiagen) and 1 μM Oligo(dT)12-18 primers (Life Technologies). […]

KATP channels = target: T2, KATP channels (Homo sapiens, UniProt O60706); assay: KATP channel function by calcium imaging after KCl-induced depolarization; assay type: cell-based; settings: 20 μM pinacidil pretreatment, 40 mM KCl, 30 s after addition
T2 construct: endogenous in cells; host or cells: hPSC-derived neural crest cultures 6 days after transduction with GFP or N3ICD-GFP lentivirus
T2 sequence (O60706 whole entry): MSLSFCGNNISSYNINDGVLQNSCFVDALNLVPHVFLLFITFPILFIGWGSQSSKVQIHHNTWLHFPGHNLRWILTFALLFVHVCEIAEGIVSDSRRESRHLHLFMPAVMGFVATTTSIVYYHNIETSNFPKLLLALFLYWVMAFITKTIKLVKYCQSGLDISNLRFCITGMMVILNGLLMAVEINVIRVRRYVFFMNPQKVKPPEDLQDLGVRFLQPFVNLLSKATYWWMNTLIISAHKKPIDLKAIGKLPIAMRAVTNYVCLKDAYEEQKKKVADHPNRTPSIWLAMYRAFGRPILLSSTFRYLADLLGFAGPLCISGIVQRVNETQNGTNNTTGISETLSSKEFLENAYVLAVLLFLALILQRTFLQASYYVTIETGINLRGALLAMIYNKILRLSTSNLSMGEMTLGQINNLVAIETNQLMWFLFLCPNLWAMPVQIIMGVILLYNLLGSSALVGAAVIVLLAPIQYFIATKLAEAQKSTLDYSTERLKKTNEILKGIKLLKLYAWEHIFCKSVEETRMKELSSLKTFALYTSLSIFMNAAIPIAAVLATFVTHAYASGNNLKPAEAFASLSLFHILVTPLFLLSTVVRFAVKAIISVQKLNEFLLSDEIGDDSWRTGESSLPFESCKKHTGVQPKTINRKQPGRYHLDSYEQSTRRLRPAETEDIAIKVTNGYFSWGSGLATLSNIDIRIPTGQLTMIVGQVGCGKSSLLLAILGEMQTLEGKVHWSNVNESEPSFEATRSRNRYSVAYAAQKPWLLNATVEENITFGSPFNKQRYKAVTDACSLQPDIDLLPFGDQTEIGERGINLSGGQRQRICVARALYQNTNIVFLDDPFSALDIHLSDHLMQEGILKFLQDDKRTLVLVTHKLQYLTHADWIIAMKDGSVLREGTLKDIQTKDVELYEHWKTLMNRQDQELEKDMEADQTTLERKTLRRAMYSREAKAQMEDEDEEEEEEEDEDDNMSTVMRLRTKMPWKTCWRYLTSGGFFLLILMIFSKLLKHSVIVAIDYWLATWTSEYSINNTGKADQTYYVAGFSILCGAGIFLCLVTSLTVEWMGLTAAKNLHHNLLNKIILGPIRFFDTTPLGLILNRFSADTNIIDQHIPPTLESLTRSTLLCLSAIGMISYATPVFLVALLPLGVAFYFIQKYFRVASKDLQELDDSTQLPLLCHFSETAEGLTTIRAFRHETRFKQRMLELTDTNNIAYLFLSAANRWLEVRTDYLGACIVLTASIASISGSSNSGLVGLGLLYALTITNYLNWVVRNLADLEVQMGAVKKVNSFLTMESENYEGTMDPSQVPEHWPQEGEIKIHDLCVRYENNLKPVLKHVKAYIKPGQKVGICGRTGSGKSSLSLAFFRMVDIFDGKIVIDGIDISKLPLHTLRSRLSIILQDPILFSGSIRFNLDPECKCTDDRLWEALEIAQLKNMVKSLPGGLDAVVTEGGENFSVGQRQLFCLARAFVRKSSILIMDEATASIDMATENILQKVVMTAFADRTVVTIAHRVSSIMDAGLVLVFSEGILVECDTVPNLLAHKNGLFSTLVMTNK
T2 sequence (Q15842 whole entry partner): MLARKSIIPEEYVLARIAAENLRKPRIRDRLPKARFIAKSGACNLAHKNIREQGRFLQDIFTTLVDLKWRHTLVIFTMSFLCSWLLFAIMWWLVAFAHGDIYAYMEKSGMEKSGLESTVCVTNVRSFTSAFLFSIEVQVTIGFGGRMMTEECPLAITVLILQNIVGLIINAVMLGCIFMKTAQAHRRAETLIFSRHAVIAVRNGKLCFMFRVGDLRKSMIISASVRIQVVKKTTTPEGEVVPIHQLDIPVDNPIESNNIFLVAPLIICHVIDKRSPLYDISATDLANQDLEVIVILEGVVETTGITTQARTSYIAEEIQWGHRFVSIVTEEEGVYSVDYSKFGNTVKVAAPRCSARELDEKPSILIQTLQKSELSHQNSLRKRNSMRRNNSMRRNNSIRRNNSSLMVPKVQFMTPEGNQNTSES
Method: To assess function of KATP channels, cells 6 days after transduction with GFP or N3ICD-GFP lentiviruses were labeled with FLIPR Calcium 6 dye as above, and 20 μM pinacidil (Santa Cruz Biotechnology, Dallas, Tex.) or DMSO added 1.5 h after addition of dye. After an additional 30 min incubation, the plate was transferred to the microscope environmental chamber. Images were acquired every 5 s for 60 s and 40 mM KCl added at t=20 s. Mean fluorescence intensity was quantified as above.

[2] = tested on: N3ICD-GFP-transduced culture; assay: Calcium imaging after KCl application; assay type: cell-based, human; settings: 40 mM KCl, 6 days after transduction
Method: Calcium imaging was performed 6 days after transduction of a neural crest cultures with N3ICD-GFP lentivirus as described above. FLIPR Calcium 6 dye (Molecular Devices, San Jose, Calif.) was prepared according to manufacturer instructions. 500 μL of prepared dye was added to the existing 500 μL of culture medium and cells incubated at 37° C., 5% CO2 for 2 h. The plate was transferred to a microscope environmental chamber at 37° C., 5% CO2 and equilibrated for 30 min. Images were acquired every 5 s for 300 s using an Eclipse Ti2-E microscope with a 4× objective. At t=50 s, a 1:114 dilution of saturated KCl solution (4.56 M, for a final concentration of 40 mM) was added to the well.

[3] = tested on: GFP+ cells isolated via FACS from a N3ICD-GFP-transduced culture; assay: Contraction assay (change in cell area); assay type: cell-based, human; settings: 40 mM KCl, 15 min after addition; GFP+ cells 2 days after FACS; water control 0% change
Method: The contraction assay was performed 2 days after isolation of GFP^+ cells via FACS from a N3ICD-GFP-transduced culture as described above. The plate was transferred to a microscope environmental chamber at 37° C., 5% CO2 and equilibrated for 30 min. At t=0 min, a 1:114 dilution of saturated potassium chloride solution, or an equivalent volume of water, was added to the culture medium and the plate briefly rocked to mix. Phase contrast images were acquired immediately upon addition of potassium chloride or water and 15 min thereafter using an Eclipse Ti2-E microscope with a 20× objective. The Freehand Selection Tool in ImageJ was used to trace the outlines of 16 cells per 20× field at times 0 and 15 min, and the Measure function used to obtain A0 and A15, the cell areas at times 0 and 15 min, respectively. For each cell, the percent change in area was computed as (A15−A0)/A0×100%.

SMILES: CC(C)(C)c1ccc(Oc2ccc(N)cn2)cc1 [CB-103]
- Notch-dependence of N3ICD-GFP-mediated transcriptional changes [1]: confirmed that N3ICD-GFP-mediated transcriptional changes occurred via a canonical Notch transactivation mechanism

- intracellular calcium after KCl-induced depolarization versus DMSO-treated cells (KATP channels; GFP-transduced cultures): such a difference was not observed
- intracellular calcium after KCl-induced depolarization versus DMSO-treated cells (KATP channels; N3ICD-GFP-transduced cultures): reduced intracellular calcium
SMILES: CC(N/C(=N\C#N)Nc1ccncc1)C(C)(C)C (centres unmarked) [pinacidil]

SMILES: [Cl-].[K+] [KCl, potassium chloride]
- Calcium response of cells to KCl application [2]: led to depolarization and calcium influx
- average reduction in area of cells [3]: approximately 7%
